Here are results for eight molecules from ChEMBL document CHEMBL1201862, “PubChem BioAssay data set” (2004).

Common to all, as to experiment: growth of human tumour cells (NCI), 48 h
For test [1], the system named is 786-0.
For test [2], the system named is A498.
In test [3] the test system is CCRF-CEM.
Test [4] deals with DU-145.
Test [5] deals with EKVX.
In test [6] the test system is HCC 2998.
Test [7] deals with HCT-116.
Test [8] relates to HOP-62.
Test [9] has as its system MOLT-4.
Test [10] deals with NCI-H522.
In test [11] the test system is NCI/ADR-RES.
Test [12] deals with OVCAR-3.
In test [13] the test system is RPMI-8226.
Test [14] deals with SF-268.
The subject of test [15] is SR.
Test [16] deals with T47D.
Test [17] concerns UACC-257.
The test system of test [18] is HOP-92.
Test [19] has as its system SNB-19.
In test [20] the test system is HL-60.

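Briefly, cells in 96-well plates were exposed to five compound concentrations for 48 h, and endpoints were estimated by linear interpolation. The concentration for 50% growth inhibition is given as GI50.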 The source made the active and inactive calls. Rule as the data show it: active = GI50 up to about 1.1 µM and inactive = higher.

`COc1cccc2c1OC1c3ccccc3OCC1C2` (stereo not drawn): the GI50 was > 100 µM (inactive) in [1]; > 100 µM (inactive) in test [2]; 42.8 µM (inactive) in test [3]; > 100 µM (inactive) in [4]; 44.2 µM (inactive) in test [5]; > 100 µM (inactive) in test [6]. Further, the GI50 is 74.6 µM (inactive) in [7]; > 100 µM (inactive) in test [8]; 96.2 µM (inactive) in [9]; > 10 µM (inactive) in test [10]; 34.6 µM (inactive) in test [11]; > 100 µM (inactive) in test [12]. The GI50 in test [13] was > 100 µM (inactive); in test [14] it was > 100 µM (inactive); in [15] it was > 100 µM (inactive); in test [16], 44.1 µM (inactive); in test [17], 83.6 µM (inactive).

Consider `CN(Cc1cnc2nc(N)nc(N)c2n1)c1ccc(C(=O)NCCCS(=O)(=O)O)cc1`, for which the GI50 is > 100 µM (inactive) in test [1]; > 100 µM (inactive) in [2]; > 100 µM (inactive) in test [4]; > 100 µM (inactive) in test [5]; > 100 µM (inactive) in [6]; 83.9 µM (inactive) in test [7]. Moreover, the GI50 in [8] was > 100 µM (inactive); in [18], 0.0264 µM (active); in [9] it was > 100 µM (inactive); in test [10] it was > 100 µM (inactive); in [11], > 100 µM (inactive); in test [12] it was > 100 µM (inactive). Moreover, the GI50 in test [13] was > 100 µM (inactive); in test [14], > 100 µM (inactive); in test [19], > 100 µM (inactive); in [15], 37.6 µM (inactive); in test [16], > 100 µM (inactive); in test [17], > 100 µM (inactive).

Regarding `CCOC(=O)c1cc(C2CCN(c3ccccc3)C2=O)c(C(=O)/C=C(/C)N)[nH]1` (stereo not drawn), the GI50 in test [1] was 10.2 µM (inactive); in test [2] it was 57 µM (inactive); in test [3] it was > 100 µM (inactive); in [4], 54.5 µM (inactive); in test [5], 23.6 µM (inactive); in test [6], > 100 µM (inactive). Besides, the GI50 in [7] is 12.7 µM (inactive); in test [20], > 100 µM (inactive); in test [8] it was 18.1 µM (inactive); in [9], 39.6 µM (inactive); in test [10], 18.5 µM (inactive); in test [11] it was 44 µM (inactive). Also, the GI50 was 39.6 µM (inactive) in [12]; > 100 µM (inactive) in [13]; 30.2 µM (inactive) in test [14]; 21.3 µM (inactive) in test [19]; > 100 µM (inactive) in test [15]; 32.8 µM (inactive) in test [16]. Moreover, the GI50 in test [17] was 94.8 µM (inactive).

Regarding `c1coc(-c2nccc3c2[nH]c2ccccc23)c1`, the GI50 in test [1], in test [2], in test [3], in test [4], in test [5] and in test [6] was > 100 µM (inactive) each time. Further, the GI50 in test [7] is > 100 µM (inactive); in test [20] it was > 100 µM (inactive); in [8], > 100 µM (inactive); in test [18] it was 35 µM (inactive); in [9] it was > 100 µM (inactive); in test [10], > 100 µM (inactive). The GI50 in test [11], in [12], in [14], in test [19], in test [15] and in test [16] was > 100 µM (inactive) in each case. For the same molecule, the GI50 in test [17] was > 100 µM (inactive).

Consider `CCOC(=O)CCC(NC(=O)c1ccc(OCc2nc3ccccc3n3cccc23)cc1)C(=O)OCC` (stereo not drawn), for which the GI50 in test [1] was 74.3 µM (inactive); in test [2], > 100 µM (inactive); in [3] it was 4.34 µM (inactive); in [4], 74.1 µM (inactive); in test [5], > 100 µM (inactive); in [6], > 100 µM (inactive). Besides, the GI50 in test [7] is 36.3 µM (inactive); in test [20], 11.5 µM (inactive); in [8], 38 µM (inactive); in test [18], 45.6 µM (inactive); in test [9], 1.65 µM (inactive); in test [10], 6.59 µM (inactive). The GI50 in test [11] is > 100 µM (inactive); in [12], 63.7 µM (inactive); in [14], 49.3 µM (inactive); in test [19], 55.5 µM (inactive); in test [15] it was 9.62 µM (inactive); in test [16], 20 µM (inactive). The GI50 in test [17] is 87.5 µM (inactive).

Turning to `O=C1c2ccccc2C(=O)C2NC(CCCCCSSCCCCCC3=NC4C(=O)c5ccccc5C(=O)C4N3)=NC12` (stereo not drawn), the GI50 is 28.8 µM (inactive) in [1]; 23.7 µM (inactive) in test [2]; > 100 µM (inactive) in [3]; > 100 µM (inactive) in test [4]; > 100 µM (inactive) in test [5]; 14.8 µM (inactive) in test [7]. The GI50 is > 100 µM (inactive) in [20]; > 100 µM (inactive) in test [8]; 5.56 µM (inactive) in [18]; 3.8 µM (inactive) in test [9]; 15 µM (inactive) in [10]; > 100 µM (inactive) in [11]. Besides, the GI50 is > 100 µM (inactive) in test [12]; > 100 µM (inactive) in [13]; 27.3 µM (inactive) in test [14]; 1.48 µM (inactive) in test [15]; > 100 µM (inactive) in [16]; 64.3 µM (inactive) in test [17].

Consider `CCc1c(CNc2ccc(C(=O)NC(CC(=O)O)C(=O)O)cc2)ccc2nc(N)nc(N)c12` (stereo not drawn), for which the GI50 in [1] was < 0.01 µM (active); in [2], 2.03 µM (inactive); in [3], < 0.0128 µM (active); in [4] it was 0.0125 µM (active); in [5], > 54.6 µM (inactive); in [6], 0.0465 µM (active). Also, the GI50 in [7] was < 0.01 µM (active); in test [20], < 0.0316 µM (active); in [8], 0.267 µM (active); in test [18] it was 6.44 µM (inactive); in [9], < 0.0182 µM (active); in [10], 0.914 µM (active). Further, the GI50 was 0.0288 µM (active) in test [11]; 10.1 µM (inactive) in test [12]; < 0.0198 µM (active) in test [14]; 2.39 µM (inactive) in [19]; < 0.01 µM (active) in test [15]; 20.5 µM (inactive) in test [16]. In addition, in test [17], the GI50 is 5.19 µM (inactive).

For `CSc1ccc(/C=C2\N=C(c3ccccc3)N(c3nc4c(Cl)cc(Cl)cc4s3)C2=O)cc1`, the GI50 in test [1] was 25.9 µM (inactive); in [2], 17 µM (inactive); in test [3] it was 7.74 µM (inactive); in test [4] it was 46 µM (inactive); in [5], 13.6 µM (inactive); in test [6], 29 µM (inactive). Besides, the GI50 in test [7] is 19.1 µM (inactive); in test [20], 21.6 µM (inactive); in [8], 18.1 µM (inactive); in test [18] it was 32.8 µM (inactive); in test [9], 18.6 µM (inactive); in test [11], 25.2 µM (inactive). Moreover, the GI50 in [12] was 18.9 µM (inactive); in test [13] it was 22.5 µM (inactive); in test [14], 28.2 µM (inactive); in test [19] it was 28.9 µM (inactive); in test [15], 20.9 µM (inactive); in [16], 38.5 µM (inactive). Moreover, the GI50 in [17] is 25.2 µM (inactive).
